One may read the IC50 as the concentration that inhibits the measured activity by half.

Each structure is given as a SMILES string. Where only a bound is given, the exact number is not on record here.

Assay [1] deals with KRAS G12D (Homo sapiens, UniProt P01116, G12D). The assay can be described thus: GDP-GTP exchange assay (bodipy-GDP/GppNHp, SOS1), KRAS G12D. Type of assay: biochemical. The note with it: bodipy-loaded KRAS G12D 2.5 nM, 4 h pre-incubation; value for the most potent isomer quoted for certain compounds; read-out: G12D (KRAS G12D exchange assay IC50).
Chain of KRAS G12D (P01116 1-188 isoform P01116-2 G12D): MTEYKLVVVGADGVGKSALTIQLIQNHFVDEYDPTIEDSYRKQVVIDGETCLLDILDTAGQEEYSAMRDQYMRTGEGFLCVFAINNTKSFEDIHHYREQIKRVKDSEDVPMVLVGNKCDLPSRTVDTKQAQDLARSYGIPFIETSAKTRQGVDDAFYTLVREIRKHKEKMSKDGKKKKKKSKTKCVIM
Assay [2] concerns the target KRAS G12V (Homo sapiens, UniProt P01116, G12V). The experiment in a line: GDP-GTP exchange assay (bodipy-GDP/GppNHp, SOS1), KRAS G12V. Format: biochemical. The note with it: KRAS G12V mutant; value for the most potent isomer quoted for certain compounds; read-out: G12V (KRAS G12V exchange assay IC50).

Chain of KRAS G12V (P01116 1-188 isoform P01116-2 G12V): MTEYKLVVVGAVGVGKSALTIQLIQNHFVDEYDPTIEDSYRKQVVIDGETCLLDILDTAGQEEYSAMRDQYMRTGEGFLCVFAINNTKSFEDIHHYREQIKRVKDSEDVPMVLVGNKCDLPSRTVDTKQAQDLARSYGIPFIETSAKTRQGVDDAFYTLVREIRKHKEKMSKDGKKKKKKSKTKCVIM

Take `Cc1nc2c(F)c(-c3cccc(Cl)c3Cl)c(CCC#N)cc2c2c1cc([C@H]1C[C@H](n3cc(C45CC(N)(C4)C5)nn3)CN1C(=O)C1CC1)n2[C@H]1[C@H]2CN[C@@H]1C2` [Example 275]: the IC50 in assay [1] and in assay [2] was at most 100 nM in each case.
In the case of `Cc1nc2c(F)c(-c3cccc(Cl)c3Cl)c(CCC#N)cc2c2c1cc([C@H]1C[C@H](n3cncn3)CN1C(=O)C1CC1)n2[C@H]1[C@H]2CN[C@@H]1C2` [Example 276], the IC50 in assay [1] and in assay [2] was at most 100 nM throughout.
Turning to `Cc1ncn([C@H]2C[C@H](c3cc4c(C)nc5c(F)c(-c6cccc(Cl)c6Cl)c(CCC#N)cc5c4n3[C@H]3[C@H]4CN[C@@H]3C4)N(C(=O)C3CC3)C2)n1` [Example 277], the IC50 in assay [1] and in assay [2] was at most 100 nM throughout.
On to `Cc1nc2c(F)c(-c3cccc(Cl)c3Cl)c(CCC#N)cc2c2c1cc([C@H]1C[C@H](n3cnc(C4CC4)n3)CN1C(=O)C1CC1)n2[C@H]1[C@H]2CN[C@@H]1C2` [Example 278], for which the half-maximal inhibitory concentration (IC50) in assay [1] and in assay [2] was at most 100 nM throughout.
With `Cc1cnn([C@H]2C[C@H](c3cc4c(C)nc5c(F)c(-c6cccc(Cl)c6Cl)c(CCC#N)cc5c4n3[C@H]3[C@H]4CN[C@@H]3C4)N(C(=O)C3CC3)C2)c1` [Example 279], the IC50 in assay [1] and in assay [2] was at most 100 nM in each case.
As to `CCc1cnn([C@H]2C[C@H](c3cc4c(C)nc5c(F)c(-c6cccc(Cl)c6Cl)c(CCC#N)cc5c4n3[C@H]3[C@H]4CN[C@@H]3C4)N(C(=O)C3CC3)C2)c1` [Example 280], the concentration for half-maximal inhibition (IC50) in assay [1] and in assay [2] was at most 100 nM throughout.
On to `Cc1nc2c(F)c(-c3cccc(Cl)c3Cl)c(CCC#N)cc2c2c1cc([C@H]1C[C@H](n3cc(C#N)cn3)CN1C(=O)C1CC1)n2[C@H]1[C@H]2CN[C@@H]1C2` [Example 281], for which the IC50 in assay [1] and in assay [2] was at most 100 nM each time.
`Cc1cn([C@H]2C[C@H](c3cc4c(C)nc5c(F)c(-c6cccc(Cl)c6Cl)c(CCC#N)cc5c4n3[C@H]3[C@H]4CN[C@@H]3C4)N(C(=O)C3CC3)C2)cn1` [Example 282]: the concentration for half-maximal inhibition (IC50) in assay [1] and in assay [2] was at most 100 nM in each case.
For the molecule `Cc1cc(F)ncc1O[C@H]1C[C@H](c2cc3c(C)nc4c(F)c(-c5cccc(Cl)c5Cl)c(CCC#N)cc4c3n2[C@H]2[C@H]3CN[C@@H]2C3)N(C(=O)C2CC2)C1` [Example 283], the half-maximal inhibitory concentration (IC50) in assay [1] and in assay [2] was at most 100 nM in each case.
On to `Cc1nc2c(F)c(-c3cccc(Cl)c3Cl)c(CCC#N)cc2c2c1cc([C@H]1C[C@H](Oc3cccnc3N3CCOCC3)CN1C(=O)C1CC1)n2[C@H]1[C@H]2CN[C@@H]1C2` [Example 284], for which the half-inhibitory concentration (IC50) in assay [1] and in assay [2] was at most 100 nM in each case.
Take `Cc1nc2c(F)c(-c3cccc(Cl)c3Cl)c(CCC#N)cc2c2c1cc([C@H]1C[C@H](OC[C@@H]3CCCC[C@H]3C#N)CN1C(=O)C1CC1)n2[C@H]1[C@H]2CN[C@@H]1C2` [Example 285]: the IC50 in assay [1] and in assay [2] was at most 100 nM in each case.
In the case of `Cc1nc2c(F)c(-c3cccc(Cl)c3Cl)c(CCC#N)cc2c2c1cc([C@H]1C[C@H](OC[C@@H]3CCCC[C@H]3C)CN1C(=O)C1CC1)n2[C@H]1[C@H]2CN[C@@H]1C2` [Example 286], the IC50 in assay [1] lay in the range of 1000 to 5000 nM; in assay [2], 100 to 1000 nM.
The matching figures for `COc1cc(O[C@H]2C[C@H](c3cc4c(C)nc5c(F)c(-c6cccc(Cl)c6Cl)c(CCC#N)cc5c4n3[C@H]3[C@H]4CN[C@@H]3C4)N(C(=O)C3CC3)C2)ccc1C#N` [Example 287]: at most 100 nM and at most 100 nM.
For `Cc1nc2c(F)c(-c3cccc(Cl)c3Cl)c(CCC#N)cc2c2c1cc([C@H]1C[C@H](Oc3cccnc3N)CN1C(=O)C1CC1)n2[C@H]1[C@H]2CN[C@@H]1C2` [Example 288] the same measures were at most 100 nM and at most 100 nM.
The matching figures for `Cc1nc2c(F)c(-c3cccc(Cl)c3Cl)c(CCC#N)cc2c2c1cc([C@H]1C[C@H](Oc3cncc4c3OCCC4)CN1C(=O)C1CC1)n2[C@H]1[C@H]2CN[C@@H]1C2` [Example 289]: at most 100 nM and at most 100 nM.
With `Cc1nc2c(F)c(-c3cccc(Cl)c3Cl)c(CCC#N)cc2c2c1cc([C@H]1C[C@H](Oc3ccc(C#N)nc3)CN1C(=O)C1CC1)n2[C@H]1[C@H]2CN[C@@H]1C2` [Example 290], the concentration for half-maximal inhibition (IC50) in assay [1] and in assay [2] was at most 100 nM in each case.
`Cc1nc2c(F)c(-c3cccc(Cl)c3Cl)c(CCC#N)cc2c2c1cc([C@H]1C[C@H](Oc3ccc(C#N)cc3F)CN1C(=O)C1CC1)n2[C@H]1[C@H]2CN[C@@H]1C2` [Example 291]: the IC50 in assay [1] and in assay [2] was at most 100 nM throughout.
As for `COc1cc(C#N)ccc1O[C@H]1C[C@H](c2cc3c(C)nc4c(F)c(-c5cccc(Cl)c5Cl)c(CCC#N)cc4c3n2[C@H]2[C@H]3CN[C@@H]2C3)N(C(=O)C2CC2)C1` [Example 292], the half-maximal inhibitory concentration (IC50) in assay [1] and in assay [2] was at most 100 nM each time.
With `Cc1nc2c(F)c(-c3cccc(Cl)c3Cl)c(CCC#N)cc2c2c1cc([C@H]1C[C@H](Oc3c(F)cc(C#N)cc3F)CN1C(=O)C1CC1)n2[C@H]1[C@H]2CN[C@@H]1C2` [Example 293], the IC50 in assay [1] and in assay [2] was at most 100 nM each time.
`Cc1nc2c(F)c(-c3cccc(Cl)c3Cl)c(CCC#N)cc2c2c1cc([C@H]1C[C@H](Oc3cccnc3C#N)CN1C(=O)C1CC1)n2[C@H]1[C@H]2CN[C@@H]1C2` [Example 294]: the IC50 in assay [1] and in assay [2] was at most 100 nM throughout.
For the molecule `Cc1c(O[C@H]2C[C@H](c3cc4c(C)nc5c(F)c(-c6cccc(Cl)c6Cl)c(CCC#N)cc5c4n3[C@H]3[C@H]4CN[C@@H]3C4)N(C(=O)C3CC3)C2)ccnc1Cl` [Example 295], the IC50 in assay [1] and in assay [2] was at most 100 nM in each case.
For the molecule `Cc1nc2c(F)c(-c3cccc(Cl)c3Cl)c(CCC#N)cc2c2c1cc([C@H]1C[C@H](Oc3ccc(N)nc3)CN1C(=O)C1CC1)n2[C@H]1[C@H]2CN[C@@H]1C2` [Example 296], the IC50 in assay [1] and in assay [2] was at most 100 nM throughout.
On to `Cc1nc2c(F)c(-c3cccc(Cl)c3Cl)c(CCC#N)cc2c2c1cc([C@H]1C[C@H](Oc3cc(Cl)ccn3)CN1C(=O)C1CC1)n2[C@H]1[C@H]2CN[C@@H]1C2` [Example 297], for which the IC50 in assay [1] and in assay [2] was at most 100 nM each time.
Turning to `COc1nccc(C#N)c1O[C@H]1C[C@H](c2cc3c(C)nc4c(F)c(-c5cccc(Cl)c5Cl)c(CCC#N)cc4c3n2[C@H]2[C@H]3CN[C@@H]2C3)N(C(=O)C2CC2)C1` [Example 298], the IC50 in assay [1] and in assay [2] was at most 100 nM each time.
Consider `Cc1nc2c(F)c(-c3cccc(Cl)c3Cl)c(CCC#N)cc2c2c1cc([C@H]1C[C@H](Oc3cn(C)nc3C(F)F)CN1C(=O)C1CC1)n2[C@H]1[C@H]2CN[C@@H]1C2` [Example 299], for which the concentration for half-maximal inhibition (IC50) in assay [1] and in assay [2] was at most 100 nM in each case.
Turning to `COc1ccc(O[C@H]2C[C@H](c3cc4c(C)nc5c(F)c(-c6cccc(Cl)c6Cl)c(CCC#N)cc5c4n3[C@H]3[C@H]4CN[C@@H]3C4)N(C(=O)C3CC3)C2)cn1` [Example 301], the IC50 in assay [1] and in assay [2] was at most 100 nM throughout.
As to `Cc1nc2c(F)c(-c3cccc(Cl)c3Cl)c(CCC#N)cc2c2c1cc([C@H]1C[C@H](Oc3cnccc3C#N)CN1C(=O)C1CC1)n2[C@H]1[C@H]2CN[C@@H]1C2` [Example 302], the IC50 in assay [1] and in assay [2] was at most 100 nM each time.
